Where two headings read alike, the source gives them in different places.
Target: T1, ER (Homo sapiens, UniProt P03372)
T1 construct: host or cells: T47D and MCF7 human breast cancer cells
T1 sequence (P03372 1-595): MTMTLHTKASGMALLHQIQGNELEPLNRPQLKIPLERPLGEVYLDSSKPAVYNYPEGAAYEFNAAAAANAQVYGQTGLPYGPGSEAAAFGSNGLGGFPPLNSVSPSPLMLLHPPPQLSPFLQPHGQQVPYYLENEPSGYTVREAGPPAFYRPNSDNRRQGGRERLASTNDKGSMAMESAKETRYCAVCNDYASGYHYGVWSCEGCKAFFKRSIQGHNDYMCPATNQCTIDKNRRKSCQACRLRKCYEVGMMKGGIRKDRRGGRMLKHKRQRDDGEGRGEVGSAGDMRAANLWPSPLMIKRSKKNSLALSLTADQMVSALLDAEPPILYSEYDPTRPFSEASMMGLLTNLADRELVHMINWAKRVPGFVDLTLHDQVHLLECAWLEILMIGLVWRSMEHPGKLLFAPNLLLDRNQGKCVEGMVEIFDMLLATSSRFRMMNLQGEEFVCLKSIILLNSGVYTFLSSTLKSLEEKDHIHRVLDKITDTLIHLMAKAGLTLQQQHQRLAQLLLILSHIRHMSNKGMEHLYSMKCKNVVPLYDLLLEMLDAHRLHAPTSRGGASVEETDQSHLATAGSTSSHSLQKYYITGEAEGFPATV
Experiment: ER degradation activity, in-cell western blot analysis in T47D cells
Assay type: cell-based
How it was run: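 Human T47D cells (DMEM, 10% FBS) are dosed for 16 h with 0.5% DMSO final and probed with 680- and 800-dye secondary antibodies. Relative ER is calculated against vehicle and untreated wells.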

[1] = 16 hours, Table A does not say which cell line (T47D or MCF7), read-out: Potency (DC50)
[2] = compounds 16 hours, Table A does not say whether T47D or MCF7, read-out: Potency (DC50)

Structure (SMILES)	DC50 [1]	DC50 [2]
C[C@@H]1Cc2c([nH]c3ccccc23)[C@@H](c2c(F)cc(N3CCC4(CCN(C(=O)CN5Cc6cc7c(cc6C5)C(=O)N(C5CCC(=O)NC5=O)C7)C4)C3)cc2F)N1CC(F)F (stereo partly drawn) [E 68, 3-(6-(2-(7-(4-((1R,3R)-2-(2,2-difluoroethyl)-3-methyl-2,3,4,9-tetrahydro-1H-pyrido[3,4-b]indol-1-yl)-3,5-difluorophenyl)-2,7-diazaspiro[4.4]nonan-2-yl)-2-oxoethyl)-1-oxo-3,5,6,7-tetrahydropyrrolo[3,4-f]isoindol-2(1H)-yl)piperidine-2,6-dione]	10 to 100 nM	
C[C@@H]1Cc2cc(O)ccc2[C@@H](c2c(F)cc(N3CCC(CN4CCC(N5Cc6cc7c(cc6C5)C(=O)N(C5CCC(=O)NC5=O)C7=O)CC4)CC3)cc2F)N1CC(F)F (stereo partly drawn) [E 270, 6-(1-((1-(4-((1S,3R)-2-(2,2-difluoroethyl)-6-hydroxy-3-methyl-1,2,3,4-tetrahydroisoquinolin-1-yl)-3,5-difluorophenyl)piperidin-4-yl)methyl)piperidin-4-yl)-2-(2,6-dioxopiperidin-3-yl)-6,7-dihydropyrrolo[3,4-f]isoindole-1,3(2H,5H)-dione]	> 100 nM	
O=C1CCC(N2C(=O)c3cc4c(cc3C2=O)CN(CC(=O)N2CCC3(CC2)CCN(c2ccc([C@@H]5c6ccc(O)cc6CC[C@@H]5c5ccccc5)cc2)CC3)CC4)C(=O)N1 (mixture of isomers) [E 162, rac-2-(2,6-dioxopiperidin-3-yl)-6-(2-(9-(4-((1R,2S)-6-hydroxy-2-phenyl-1,2,3,4-tetrahydronaphthalen-1-yl)phenyl)-3,9-diazaspiro[5.5]undecan-3-yl)-2-oxoethyl)-5,6,7,8-tetrahydro-1H-pyrrolo[3,4-g]isoquinoline-1,3(2H)-dione]	10 to 100 nM	
C[C@@H]1Cc2c([nH]c3ccccc23)[C@@H](c2c(F)cc(N3CC(C(=O)N4CCC(CN5Cc6cc7c(cc6C5)C(=O)N(C5CCC(=O)NC5=O)C7=O)CC4)C3)cc2F)N1CC(F)F (stereo partly drawn) [E 237, 6-((1-(1-(4-((1R,3R)-2-(2,2-difluoroethyl)-3-methyl-2,3,4,9-tetrahydro-1H-pyrido[3,4-b]indol-1-yl)-3,5-difluorophenyl)azetidine-3-carbonyl)piperidin-4-yl)methyl)-2-(2,6-dioxopiperidin-3-yl)-6,7-dihydropyrrolo[3,4-f]isoindole-1,3(2H,5H)-dione]	> 100 nM	
C[C@@H]1Cc2c([nH]c3ccccc23)[C@@H](c2c(F)cc(N3CC4(CCN(CC(=O)N5Cc6cc7c(cc6C5)C(=O)N(C5CCC(=O)NC5=O)C7)CC4)C3)cc2F)N1CC(F)F (stereo partly drawn) [E 98, 3-(6-(2-(2-(4-((1R,3R)-2-(2,2-difluoroethyl)-3-methyl-2,3,4,9-tetrahydro-1H-pyrido[3,4-b]indol-1-yl)-3,5-difluorophenyl)-2,7-diazaspiro[3.5]nonan-7-yl)acetyl)-1-oxo-3,5,6,7-tetrahydropyrrolo[3,4-f]isoindol-2(1H)-yl)piperidine-2,6-dione]	< 10 nM	
C[C@@H]1Cc2c([nH]c3ccccc23)[C@@H](c2c(F)cc(N3CCC(N4CC(CC(=O)N5Cc6cc7c(cc6C5)C(=O)N(C5CCC(=O)NC5=O)C7)C4)CC3)cc2F)N1CC(F)F (stereo partly drawn) [E 56, 3-(6-(2-(1-(1-(4-((1R,3R)-2-(2,2-difluoroethyl)-3-methyl-2,3,4,9-tetrahydro-1H-pyrido[3,4-b]indol-1-yl)-3,5-difluorophenyl)piperidin-4-yl)azetidin-3-yl)acetyl)-1-oxo-3,5,6,7-tetrahydropyrrolo[3,4-f]isoindol-2(1H)-yl)piperidine-2,6-dione]	10 to 100 nM	
C[C@@H]1Cc2cc(O)ccc2[C@H](c2c(F)cc(C(=O)N3CC4(CCN(C(=O)CN5Cc6cc7c(cc6C5)C(=O)N(C5CCC(=O)NC5=O)C7=O)CC4)C3)cc2F)N1CC(F)F (stereo partly drawn) [E 458, 6-(2-(2-(4-((1R,3R)-2-(2,2-difluoroethyl)-6-hydroxy-3-methyl-1,2,3,4-tetrahydroisoquinolin-1-yl)-3,5-difluorobenzoyl)-2,7-diazaspiro[3.5]nonan-7-yl)-2-oxoethyl)-2-(2,6-dioxopiperidin-3-yl)-6,7-dihydropyrrolo[3,4-f]isoindole-1,3(2H,5H)-dione]		> 100 nM
C[C@@H]1Cc2c([nH]c3ccccc23)[C@@H](c2c(F)cc(N3CC4(CCCN(CC(=O)N5Cc6cc7c(cc6C5)C(=O)N(C5CCC(=O)NC5=O)C7=O)C4)C3)cc2F)N1CC(F)F (stereo partly drawn) [E 105, 6-(2-(2-(4-((1R,3R)-2-(2,2-difluoroethyl)-3-methyl-2,3,4,9-tetrahydro-1H-pyrido[3,4-b]indol-1-yl)-3,5-difluorophenyl)-2,6-diazaspiro[3.5]nonan-6-yl)acetyl)-2-(2,6-dioxopiperidin-3-yl)-6,7-dihydropyrrolo[3,4-f]isoindole-1,3(2H,5H)-dione]	> 100 nM	
C[C@@H]1Cc2cc(O)ccc2[C@@H](c2c(F)cc(C3CCC(C(=O)N4CCC(N5Cc6cc7c(cc6C5)C(=O)N(C5CCC(=O)NC5=O)C7=O)CC4)CC3)cc2F)N1CC(F)F (stereo partly drawn) [E 487, 6-(1-(4-(4-((1S,3R)-2-(2,2-difluoroethyl)-6-hydroxy-3-methyl-1,2,3,4-tetrahydroisoquinolin-1-yl)-3,5-difluorophenyl)cyclohexane-1-carbonyl)piperidin-4-yl)-2-(2,6-dioxopiperidin-3-yl)-6,7-dihydropyrrolo[3,4-f]isoindole-1,3(2H,5H)-dione]		10 to 100 nM
C[C@H]1Cc2c([nH]c3ccccc23)[C@H](c2c(F)cc(N3CC4(CCCN(C(=O)CN5Cc6cc7c(cc6C5)C(=O)N(C5CCC(=O)NC5=O)C7=O)C4)C3)cc2F)N1CC(F)F (stereo in doubt) [E 80, 6-(2-(2-(4-((1S,3S)-2-(2,2-difluoroethyl)-3-methyl-2,3,4,9-tetrahydro-1H-pyrido[3,4-b]indol-1-yl)-3,5-difluorophenyl)-2,6-diazaspiro[3.5]nonan-6-yl)-2-oxoethyl)-2-(2,6-dioxopiperidin-3-yl)-6,7-dihydropyrrolo[3,4-f]isoindole-1,3(2H,5H)-dione]	10 to 100 nM	
C[C@@H]1Cc2cc(O)ccc2[C@@H](c2ccc(C3=CCC4(CC3)CCN(C(=O)CN3Cc5cc6c(cc5C3)C(=O)N(C3CCC(=O)NC3=O)C6=O)CC4)cc2)N1CC(F)F (stereo partly drawn) [E 448, 6-(2-(9-(4-((1R,3R)-2-(2,2-difluoroethyl)-6-hydroxy-3-methyl-1,2,3,4-tetrahydroisoquinolin-1-yl)phenyl)-3-azaspiro[5.5]undec-8-en-3-yl)-2-oxoethyl)-2-(2,6-dioxopiperidin-3-yl)-6,7-dihydropyrrolo[3,4-f]isoindole-1,3(2H,5H)-dione]		> 100 nM
C[C@@H]1Cc2cc(O)ccc2[C@@H](c2ccc(N3CCC(C(=O)N4CCC(N5Cc6cc7c(cc6C5)C(=O)N(C5CCC(=O)NC5=O)C7=O)CC4)CC3)cc2)N1CC(F)F (stereo partly drawn) [E 318, 6-(1-(1-(4-((1R,3R)-2-(2,2-difluoroethyl)-6-hydroxy-3-methyl-1,2,3,4-tetrahydroisoquinolin-1-yl)phenyl)piperidine-4-carbonyl)piperidin-4-yl)-2-(2,6-dioxopiperidin-3-yl)-6,7-dihydropyrrolo[3,4-f]isoindole-1,3(2H,5H)-dione]	< 10 nM	
C[C@@H]1Cc2c([nH]c3ccccc23)[C@@H](c2c(F)cc(N3CCC(CN4CCC(N5Cc6cc7c(cc6C5)C(=O)N(C5CCC(=O)NC5=O)C7)CC4)CC3)cc2F)N1CC(F)F (stereo partly drawn) [E 53, 3-(6-(1-((1-(4-((1R,3R)-2-(2,2-difluoroethyl)-3-methyl-2,3,4,9-tetrahydro-1H-pyrido[3,4-b]indol-1-yl)-3,5-difluorophenyl)piperidin-4-yl)methyl)piperidin-4-yl)-1-oxo-3,5,6,7-tetrahydropyrrolo[3,4-f]isoindol-2(1H)-yl)piperidine-2,6-dione]	10 to 100 nM	
C[C@H]1CC2(CCN(C(=O)CN3Cc4cc5c(cc4C3)C(=O)N(C3CCC(=O)NC3=O)C5=O)CC2)CN1c1ccc([C@@H]2c3ccc(O)cc3CC[C@@H]2c2ccccc2)cc1 (mixture of isomers) [E 143, Rac-2-(2,6-dioxopiperidin-3-yl)-6-(2-((S)-2-(4-((1R,2S)-6-hydroxy-2-phenyl-1,2,3,4-tetrahydronaphthalen-1-yl)phenyl)-3-methyl-2,8-diazaspiro[4.5]decan-8-yl)-2-oxoethyl)-6,7-dihydropyrrolo[3,4-f]isoindole-1,3(2H,5H)-dione]	10 to 100 nM	
O=C1CCC(N2Cc3cc4c(cc3C2=O)CN(C2CCN(CC3CN(c5ccc([C@@H]6c7ccc(O)cc7CC[C@@H]6c6ccccc6)cc5)C3)CC2)C4)C(=O)N1 (stereo partly drawn) [E 294, 3-(6-(1-((1-(4-((1R,2S)-6-hydroxy-2-phenyl-1,2,3,4-tetrahydronaphthalen-1-yl)phenyl)azetidin-3-yl)methyl)piperidin-4-yl)-1-oxo-3,5,6,7-tetrahydropyrrolo[3,4-f]isoindol-2(1H)-yl)piperidine-2,6-dione]	> 100 nM	
